Data as given in patent publication US8673281B2 (BioCis Pharma Oy, priority 2003, dated 2014).
“Also recorded” adds a separate entry of the source.

Key:
[1] = tested on: neutrophil cytosol; assay: UCA metabolism in neutrophil cytosol (TCA precipitation, scintillation counting, HPLC); format: in vitro ADME, human
Experimental: An aminopropyl stationary phase column Lichrosorb NH2, Hibar RT, 250×4 mm, 5 μm (Merck, Darmstadt, Germany) was used. The eluent was a 50% (v/v) mixture of acetonitrile and a solution of 2% (v/v) acetic acid and 0.5% (w/v) ammonium acetate in water (pH ca. 5). The isomers were detected at 268 nm, and the retention times were Tr(cis) 3.7 min and Tr(trans) 5.4 min.
Samples were mixed with OptiPhase HiSafe 2 scintillation liquid (EG&G Wallac, Turku, Finland) and [^14C]UCA radioactivity measured in RackBeta 1214 scintillation counter (EG&G Wallac). The counting efficiency was 96.7%±0.12% (mean±SEM, n=48).
Next, we examined whether the [^14C]UCA in the cytosol was metabolized by neutrophils after the uptake by determining how much of the radioactive label was associated with intact UCA. This was carried out by precipitating the cytosolic proteins of [^14C]UCA-labeled neutrophils with 10% trichloracetic acid (TCA) on ice overnight. The amount of radioactive label was then measured both in the precipitate and in the protein-free supernatant by scintillation counting, and the content of intact UCA in the supernatant by HPLC.

[2] = tested on: neutrophils; assay: Monitoring of intracellular pH (BCECF flow cytometry, nigericin calibration); format: cell-based, human; settings: for effect on intracellular BCECF signal: extracellular pH adjusted to 7.4
Experimental: Intracellular pH levels in neutrophils were monitored with flow cytometry utilizing a pH-sensitive fluorescent dye 2′,7′-bis-(2-carboxyethyl)-5-(and-6)-carboxyfluorescein (BCECF, acetoxymethyl ester; Molecular Probes, Leiden, The Netherlands). About 30×10^6 cells were incubated in 10 ml HBSS, pH 7.4, containing 0.35 μM BCECF at 25° C. for 30 min, washed twice in HBSS, and resuspended in 1 ml of 154 mM NaCl. Aliquot (235 μl) of the incubation medium with known UCA concentrations and checked pH was applied to the cells (4.5×10^5 cells/15 μl NaCl) in polystyrene tubes, incubated at 25° C. for about 20 min, and analyzed in a flow cytometer.
Calibration of intracellular pH was performed in situ using the K^+/H^+ ionophore nigericin. An excess of pH calibration buffers (10 mM Pipes, 131 mM KCl, pH adjusted to 6.10, 6.50, 6.80, 7.10, 7.40, and 7.60 or 7.70) and 10 μM nigericin was added to the BCECF-labelled cells in 154 mM NaCl. The cells were kept at room temperature and analysed by flow cytometry within 45 min. Cells incubated with or without UCA were analysed for intracellular pH simultaneously. The pH was adjusted to the same values as those in the calibration buffers. Intracellular pH was determined from a BCECF fluorescence intensity calibration curve.

[3] = tested on: neutrophils; assay: Respiratory burst activity, opsonized zymosan-induced chemiluminescence; format: cell-based, human; settings: 3 mM UCA
Experimental: The respiratory burst activity was used as a measure of neutrophil function. The UCA isomers were tested in a chemiluminescence assay with opsonized zymosan as described (Kivistö et al. 1996). The peak values were recorded.
To examine how the cytosol-acidifying effect of UCA correlates with the previously reported inhibition of neutrophil respiratory burst activity, we measured the effect of 3 mM UCA on opsonized zymosan-induced chemiluminescence by the same batch of neutrophils and in the same experimental conditions described above, i.e. when the pH of the test solution was adjusted back to its initial level after UCA addition. […] In the same conditions, cis-UCA suppressed the respiratory burst activity by 15%±8.4% and 44%±1.3%, respectively. […] The corresponding inhibitions for cis-UCA were 41%±10% at pH 6.60±0.02 (nominal pH 7.4) and 48%±1.6% at pH 6.33±0.07 (nominal pH 6.5).

[4] = pH effect of UCA isomers on incubation buffers; format: physicochemical; settings: for pH of test solution after UCA supplementation: 3 mM UCA, unadjusted; for effect on pH of HBSS buffer: HBSS adjusted to pH 6.5 prior to UCA addition
Text: As such, UCA resembles small ions (e.g., K^+, Na^+, H^+, […]) which enter the cell and modulate cell functions by altering the physico-chemical micro-environment (pH, ion potential, ion strength) of the cytosol. Therefore, we hypothesized that the high levels of intact UCA may provoke cellular changes simply due to its passive presence in the cytosol as an acid. […] Such a possibility was approached by testing the effect of UCA on pH first in a buffer solution and then in intact cells. […]

[5] = Protonation state calculated with the Henderson-Hasselbalch Equation; settings: pH 6.5
Text: It can be hypothesized that the ability of UCA to acidify cytosol in living cells depends on two major parameters: the pH of the extracellular space and the initial pH of the cytosol. Because UCA is found mainly in the skin, one should consider these two parameters in the context of the physiological environment. It is well known that the human skin has an acid mantle with a surficial pH around 4-6. When the stratum corneum is stripped layer by layer, the pH increases gradually and, after total removal of the stratum corneum, the pH in the remaining epidermis is about 6.9 (Öhman & Vahlquist, 1994). In deeper layers, the almost neutral pH of the interior body is reached. A recent analysis provides evidence that UCA is the major pH-regulating factor in the human stratum corneum (Krien & Kermici 2000). The majority of UCA resides in the stratum corneum; however, a significant amount of UCA diffuses into and evidently also through the (epi)dermis, because elevated levels of cis-UCA can be detected in the urine within 1-4 h following total-body UVB exposure (Kammayer et al. 1997). […] In contrast, at a pH below the imidazolyl pKa's, UCA would be mainly in the protonated form capable of promoting cytosolic acidification upon cell entry. […] To provide experimental support for these hypotheses, we measured the change in cytosolic pH in UCA-treated cells. […]

[6] = cited from earlier work; for imidazolyl pKa: Roberts et al. 1982, Krien & Kermici 2000
[7] = tested on: histamine receptors; settings: Laihia, 1998; cited from earlier work
[8] = 3 mM UCA, extracellular pH 6.1-7.7, effect below pH 7
[9] = pH left unadjusted, nominal pH 6.5
[10] = pH left unadjusted, nominal pH 7.4

| Compound | recovery of [14C]UCA activity in protein-free supernatant ([1]; 10% TCA precipitation of cytosolic proteins, cis n=9, trans n=4) | effect on intracellular pH (nigericin calibration) ([2]; 0.3 mM UCA, same pH range) | effect on intracellular pH (nigericin calibration) [2, 8] | effect on intracellular BCECF signal ([2]; 3 mM UCA) | inhibition of respiratory burst chemiluminescence ([3]; pH adjusted back to 6.5, n=3) | inhibition of respiratory burst chemiluminescence ([3]; pH adjusted back to 7.4) | inhibition of respiratory burst chemiluminescence [3, 9] | inhibition of respiratory burst chemiluminescence [3, 10] | pH of test solution after UCA supplementation ([4]; nominal pH 6.5) | pH of test solution after UCA supplementation ([4]; nominal pH 7.4) | effect on pH of HBSS buffer [4] | fraction in protonated state [5] | pKa of the carboxyl group ([6]; Roberts 1982) | imidazolyl pKa [6] | binding to histamine receptors [7] | recovery of [14C]UCA activity in protein-free supernatant ([1]; human) | fraction in deprotonated state [5] |
| --- | --- | --- | --- | --- | --- | --- | --- | --- | --- | --- | --- | --- | --- | --- | --- | --- | --- |
| O=C(O)/C=C\c1c[nH]cn1 [cis-UCA, cis-urocanic acid] | 102%±3.9% | much smaller effect | lowers the intracellular pH | no significant effect | 44%±1.3% | 15%±8.4% | 48%±1.6% | 41%±10% | 6.33±0.07 | 6.60±0.02 | almost no effect | over 70% | ~3.3 | ~7.0 | does not directly bind |  |  |
| O=C(O)C=Cc1c[nH]cn1 [trans-UCA, 3-(1H-imidazol-4-yl)-2-propenoic acid, reference compound] |  |  | only a minor effect | no significant effect | 14%±4.0% | no effect | 48%±4.0% | 31%±8.4% | 5.87±0.06 | 6.22±0.02 | markedly reduce the pH; also recorded: dropped the pH |  |  | ~6.1 |  | 100.2%±0.9% | 70% |
